Reference: patent US12396458B2, “Fused ring substituted aromatic compound and preparation method therefor, herbicidal composition, and use thereof” (Qingdao Kingagroot Chemical Compound Co., Ltd., priority 2020, dated 2025)

Key:
Assay in all cases: Weeding effect in post-emergence stage (greenhouse pot test)
Type in all cases: in vivo
Capsella bursa-pastoris = settings: 3 weeks after application, fresh weight control rate
Excerpt: (§1) The activity level criteria for plant damage (i.e., growth control rate) are as follows:
(§2) Level 5: growth control rate is above 85%; • Level 4: growth control rate is greater than or equal to 60% and less than 85%; • Level 3: growth control rate is greater than or equal to 40% and less than 60%; • Level 2: growth control rate is greater than or equal to 20% and less than 40%; • Level 1: growth control rate is greater than or equal to 5% and less than 20%; • Level 0: growth control rate is less than 5%.
(§3) The above growth control rates are fresh weight control rates.
(§4) Experiment on weeding effect in post-emergence stage:
(§5) Monocotyledonous and dicotyledonous weed seeds (Descurainia sophia, Capsella bursa-pastoris, Abutilon theophrasti, Galium aparine, Stellaria media, Lithospermum arvense, Rorippa indica, Alopecurus aequalis, Alopecurus japonicus, Eleusine indica, Beckmannia syzigachne, Sclerochloa dura, Phleum paniculatum, Veronica didyma Tenore, Bromus japonicus, Aegilops tauschii, Phalaris arundinacea, Amaranthus retrojlexus, Chenopodiaceae, Commelina communis, Sonchus arvensis, convolvulus arvensis, Cirsium setosum, Solanum nigrum, Acalypha australis, Digitaria sanguinalis, Echinochloa crusgalli, Setaria viridis, Setaria glauca, Leptochloa chinensis, Monochoria vaginalis, Sagittaria trifolia, Scirpus juncoides, Cyperus rotundus, Cyperus iria, Cyperus difformis, Fimbristylis, Portulaca oleracea, Xanthium sibiricum, Pharbitis nil, Conyza japonica, etc.) and major crop seeds (wheat, corn, rice, soybean, cotton, oilseed rape, millet, sorghum, potato, sesame, ricinus, etc.) were placed in plastic pots filled with soil, then covered with 0.5-2 cm of soil, allowed to grow in a good greenhouse environment. After 2 weeks of sowing, the test plants were treated in the 2-3 leaf stage. The tested compounds of the present invention were respectively dissolved in acetone, then added with Tween 80 and 1.5 liter/ha of emulsifiable concentrate of methyl oleate as synergist, diluted with a certain amount of water to obtain a solution with a certain concentration, and sprayed with a spray tower onto the plants. After the application, the plants were cultured for 3 weeks in the greenhouse, and then the experimental results of the weeding were counted. The doses of the used compounds were 500, 250, 125, 60, 15, 7.5 g a.i./ha, and the averages were obtained by repeating for three times.

Conyza japonica = settings: post-emergence, 3 weeks after application, fresh weight control rate
Excerpt: as §1, §2, §3, §4, §5

Alopecurus japonicus = settings: dose 15 g a.i./ha, 3 weeks after application, fresh weight control rate
Excerpt: as §1, §2, §3, §4, §5

Row | SMILES | Activity level (growth control rate), Capsella bursa-pastoris (Capsella bursa-pastoris; dose 15 g a.i./ha) | Activity level (growth control rate), Capsella bursa-pastoris (Capsella bursa-pastoris; dose 125 g a.i./ha) | further results
1 | COC(=O)C12CCCC1C(c1cc(-n3c(=O)cc(C(F)(F)F)n(C)c3=O)c(F)cc1C(F)(F)F)=NO2 (stereo not shown) [Compound 211] | 5 (Level 5: growth control rate is above 85%) |  | Activity level (growth control rate), Conyza japonica (Conyza japonica; dose 15 g a.i./ha): 5 (Level 5: growth control rate is above 85%)
2 | COC(=O)C12CCCC1C(c1cc(-n3c(=O)cc(C(F)(F)F)n(C)c3=O)c(F)cc1C#N)=NO2 (stereo not shown) [Compound 212] | 5 (Level 5: growth control rate is above 85%) |  | Activity level (growth control rate), Conyza japonica (Conyza japonica; dose 15 g a.i./ha): 5 (Level 5: growth control rate is above 85%)
3 | Cn1c(C(F)(F)F)cc(=O)n(-c2cc(C3=NOC4(C(=O)OCc5ccccc5F)CCCC34)c(Cl)cc2F)c1=O (stereo not shown) [Compound 264] | 5 (Level 5: growth control rate is above 85%) |  | Activity level (growth control rate), Conyza japonica (Conyza japonica; dose 15 g a.i./ha): 4 (Level 4: growth control rate is greater than or equal to 60% and less than 85%)
4 | CCSC(=O)C12CCCC1C(c1cc(-n3c(=O)cc(C(F)(F)F)n(C)c3=O)c(F)cc1Cl)=NO2 (stereo not shown) [Compound 334] | 5 (Level 5: growth control rate is above 85%) |  | Activity level (growth control rate), Conyza japonica (Conyza japonica; dose 15 g a.i./ha): 4 (Level 4: growth control rate is greater than or equal to 60% and less than 85%)
5 | COC(=O)C12CCCC1(O)C(c1cc(-n3c(=O)cc(C(F)(F)F)n(C)c3=O)c(F)cc1Cl)=NO2 (stereo not shown) [Compound 351] |  |  | Activity level (growth control rate), Conyza japonica (Conyza japonica; dose 15 g a.i./ha): 4 (Level 4: growth control rate is greater than or equal to 60% and less than 85%)
6 | COC(=O)C12CCCCC1C(c1cc(-n3c(=O)cc(C(F)(F)F)n(C)c3=O)c(F)cc1Cl)=NO2 (stereo not shown) [Compound 370] |  | 5 (Level 5: growth control rate is above 85%) | 
7 | COC(=O)C12CSCC1C(c1cc(-n3c(=O)cc(C(F)(F)F)n(C)c3=O)c(F)cc1Cl)=NO2 (stereo not shown) [Compound 374] |  | 5 (Level 5: growth control rate is above 85%) | Activity level (growth control rate), Conyza japonica (Conyza japonica; dose 125 g a.i./ha): 5 (Level 5: growth control rate is above 85%)
8 | COC(=O)C12CCCC1C(c1cc(-n3c(=O)n(C)c(=S)n(C)c3=S)c(F)cc1Cl)=NO2 (stereo not shown) [Compound 395] |  | 5 (Level 5: growth control rate is above 85%) | 
9 | COC(=O)C12CCCCCC1C(c1cc(-n3c(=O)cc(C(F)(F)F)n(C)c3=O)c(F)cc1Cl)=NO2 (stereo not shown) [Compound 435] | 5 (Level 5: growth control rate is above 85%) |  | 
10 | COC(=O)C12CCCC1C(c1cc(-n3c(=O)cc(C(F)(F)F)n(C)c3=O)c(Cl)cc1Cl)=NO2 (stereo not shown) [Compound 440] | 5 (Level 5: growth control rate is above 85%) |  | 
11 | COC(=O)C12CCC(O)C1C(c1cc(-n3c(=O)cc(C(F)(F)F)n(C)c3=O)c(F)cc1Cl)=NO2 (stereo not shown) [Compound 444] | 5 (Level 5: growth control rate is above 85%) |  | Activity level (growth control rate), Alopecurus japonicus (Alopecurus japonicus): 4 (Level 4: growth control rate is greater than or equal to 60% and less than 85%)
12 | COC(=O)C12CC(C)CC1C(c1cc(-n3c(=O)cc(C(F)(F)F)n(C)c3=O)c(F)cc1Cl)=NO2 (stereo not shown) [Compound 456] | 5 (Level 5: growth control rate is above 85%) |  | Activity level (growth control rate), Conyza japonica (Conyza japonica; dose 15 g a.i./ha): 4 (Level 4: growth control rate is greater than or equal to 60% and less than 85%)
13 | COC(=O)C1CC2C(c3cc(-n4c(=O)cc(C(F)(F)F)n(C)c4=O)c(F)cc3Cl)=NOC2(C(=O)OC)C1 (stereo not shown) [Compound 464] | 5 (Level 5: growth control rate is above 85%) |  | Activity level (growth control rate), Alopecurus japonicus (Alopecurus japonicus): 5 (Level 5: growth control rate is above 85%)
14 | CCOC(=O)C12ON=C(c3cc(-n4c(=O)cc(C(F)(F)F)n(C)c4=O)c(F)cc3Cl)C1CCC2F (stereo not shown) [Compound 472] | 5 (Level 5: growth control rate is above 85%) |  | Activity level (growth control rate), Conyza japonica (Conyza japonica; dose 15 g a.i./ha): 4 (Level 4: growth control rate is greater than or equal to 60% and less than 85%)
15 | CCOC(=O)C12ON=C(c3cc(-n4c(=O)cc(C(F)(F)F)n(C)c4=O)c(F)cc3Cl)C1CCC2=NO (stereo not shown) [Compound 491] | 5 (Level 5: growth control rate is above 85%) |  | 
16 | COC(=O)C12CCCC1C(c1cc(-n3c(=O)cc(C(F)(F)F)n(C)c3=S)c(F)cc1Cl)=NO2 (stereo not shown) [Compound 497] | 5 (Level 5: growth control rate is above 85%) |  | 
17 | COC(=O)C12CCCC1C(c1cc(N3C(=O)CC(=C(C)C)C3=O)c(F)cc1Cl)=NO2 (stereo not shown) [Compound 544] |  | 5 (Level 5: growth control rate is above 85%) | 

Row | SMILES | Activity level (growth control rate), Capsella bursa-pastoris (Capsella bursa-pastoris; dose 15 g a.i./ha) | Activity level (growth control rate), Capsella bursa-pastoris (Capsella bursa-pastoris; dose 125 g a.i./ha) | further results
18 | COC(=O)C12CCCC1C(c1cc(N3C(=O)C4CCCCC4C3=O)c(F)cc1Cl)=NO2 (stereo not shown) [Compound 545] |  | 5 (Level 5: growth control rate is above 85%) | 
19 | O=C1C2CC=CCC2C(=O)N1c1cc(C2=NOC3(C(=O)O)CCCC23)c(Cl)cc1F (stereo not shown) [Compound 546] |  | 5 (Level 5: growth control rate is above 85%) | 
20 | COC(=O)C12CCCC1C(c1cc(N3C(=O)CC(C)CC3=O)c(F)cc1Cl)=NO2 (stereo not shown) [Compound 547] |  | 5 (Level 5: growth control rate is above 85%) | 
21 | COC(=O)C12CCCC1C(c1cc(-n3c(=O)c4ccccc4n(C)c3=O)c(F)cc1Cl)=NO2 (stereo not shown) [Compound 551] |  | 5 (Level 5: growth control rate is above 85%) | 
22 | CCCN1C(=O)C(=O)N(c2cc(C3=NOC4(C(=O)OC)CCCC34)c(Cl)cc2F)C1=S (stereo not shown) [Compound 552] |  | 5 (Level 5: growth control rate is above 85%) | 
23 | CCCNC(=O)C12CCCC1C(c1cc(N3C(=O)C(=O)N(CCC)C3=S)c(F)cc1Cl)=NO2 (stereo not shown) [Compound 553] | 5 (Level 5: growth control rate is above 85%) |  | 
24 | COC(=O)C12CCCC1C(c1cc(-n3nc4n(c3=O)CCCC4)c(F)cc1Cl)=NO2 (stereo not shown) [Compound 561] |  | 5 (Level 5: growth control rate is above 85%) | 
25 | COC(=O)C12CCCC1C(c1cc(/N=c3\scc(C(F)(F)F)n3C)c(F)cc1Cl)=NO2 (stereo not shown) [Compound 574] | 5 (Level 5: growth control rate is above 85%) |  | Activity level (growth control rate), Conyza japonica (Conyza japonica; dose 15 g a.i./ha): 5 (Level 5: growth control rate is above 85%)
26 | COC(=O)C12CCCC1C(c1cc(-c3nnc(C(F)(F)F)cc3O)c(F)cc1Cl)=NO2 (stereo not shown) [Compound 577] |  | 5 (Level 5: growth control rate is above 85%) | Activity level (growth control rate), Conyza japonica (Conyza japonica; dose 125 g a.i./ha): 5 (Level 5: growth control rate is above 85%)
27 | COC(=O)C12CCCC1C(c1cc(-c3nn(C)c(C(F)(F)F)cc3=O)c(F)cc1Cl)=NO2 (stereo not shown) [Compound 579] | 5 (Level 5: growth control rate is above 85%) |  | Activity level (growth control rate), Alopecurus japonicus (Alopecurus japonicus): 4 (Level 4: growth control rate is greater than or equal to 60% and less than 85%)
28 | COC(=O)C12CCCC1C(c1cc(-c3ncc(S(C)(=O)=O)cc3Cl)c(F)cc1Cl)=NO2 (stereo not shown) [Compound 584] |  | 5 (Level 5: growth control rate is above 85%) | Activity level (growth control rate), Conyza japonica (Conyza japonica; dose 125 g a.i./ha): 5 (Level 5: growth control rate is above 85%)
29 | COC(=O)C12CCCC1C(c1cc(-c3ncc(C(F)(F)F)c(C)c3Cl)c(F)cc1Cl)=NO2 (stereo not shown) [Compound 586] |  | 5 (Level 5: growth control rate is above 85%) | Activity level (growth control rate), Conyza japonica (Conyza japonica; dose 125 g a.i./ha): 5 (Level 5: growth control rate is above 85%)
30 | COC(=O)C12CCCC1C(c1cc(-c3cc(C(F)(F)F)n(C)c3)c(F)cc1Cl)=NO2 (stereo not shown) [Compound 587] |  | 5 (Level 5: growth control rate is above 85%) | 
31 | COC(=O)C12CCCC1C(c1cc(-c3c(Cl)c(C(F)(F)F)n(C)c3Cl)c(F)cc1Cl)=NO2 (stereo not shown) [Compound 588] |  | 5 (Level 5: growth control rate is above 85%) | 
32 | COC(=O)C12CCCC1C(c1cc(-c3cc(C(F)(F)F)nn3C)c(F)cc1Cl)=NO2 (stereo not shown) [Compound 589] |  | 5 (Level 5: growth control rate is above 85%) | 
33 | COC(=O)C12CCCC1C(c1cc(-c3c(Br)c(C(F)(F)F)nn3C)c(F)cc1Cl)=NO2 (stereo not shown) [Compound 590] |  | 5 (Level 5: growth control rate is above 85%) | 
34 | COC(=O)C12CCCC1C(c1cc(NC(=O)C3=C(C(=O)O)CCCC3)c(F)cc1Cl)=NO2 (stereo not shown) [Compound 597] | 5 (Level 5: growth control rate is above 85%) |  | Activity level (growth control rate), Conyza japonica (Conyza japonica; dose 15 g a.i./ha): 4 (Level 4: growth control rate is greater than or equal to 60% and less than 85%)
